Assay results from patent publication US20100041892A1, “Therapeutic agent for diabetes” (priority 2005, published 2010).

SMILES	melting point [°C]
CCCCCS(=O)(=O)NC(=O)CCc1ccc(OCCOC)cc1Oc1ccccc1 [Example 219, 3-[4-(2-methoxyethoxy)-2-phenoxyphenyl]-N-(pentylsulfonyl)propanamide]	70.4 to 70.5
C/C(=C\c1ccc(OC(C)C)cc1Oc1ncc(C(F)(F)F)cc1Cl)C(=O)NS(=O)(=O)NCCc1ccccc1 [Example 220, (2E)-3-(2-{[3-chloro-5-(trifluoromethyl)pyridin-2-yl]oxy}-4-isopropoxyphenyl)-2-methyl-N-{[(2-phenylethyl)amino]sulfonyl}acrylamide]	147 to 147.5
COCCCNS(=O)(=O)NC(=O)/C(C)=C/c1ccc(OC(C)C)cc1Oc1ncc(C(F)(F)F)cc1Cl [Example 221, (2E)-3-(2-{[3-chloro-5-(trifluoromethyl)pyridin-2-yl]oxy}-4-isopropoxyphenyl)-N-{[(3-methoxypropyl)amino]sulfonyl}-2-methylacrylamide]	120 to 121
C/C(=C\c1ccc(OC(C)C)cc1Oc1ncc(C(F)(F)F)cc1Cl)C(=O)NS(=O)(=O)NCCOC(C)C [Example 222, (2E)-3-(2-{[3-chloro-5-(trifluoromethyl)pyridin-2-yl]oxy}-4-isopropoxyphenyl)-N-{[(2-isopropoxyethyl)amino]sulfonyl}-2-methylacrylamide]	137.5 to 137.7
COCCCNS(=O)(=O)NC(=O)/C(C)=C/c1ccc(OCCOC)cc1Oc1ncc(C(F)(F)F)cc1Cl [Example 227, (2E)-3-[2-{[3-chloro-5-(trifluoromethyl)pyridin-2-yl]oxy}-4-(2-methoxyethoxy)phenyl]-N-{[(3-methoxypropyl)amino]sulfonyl}-2-methylacrylamide]	121 to 122
COCCOc1ccc(/C=C/C(=O)NS(=O)(=O)NCCc2ccccc2)c(Oc2ncc(C(F)(F)F)cc2Cl)c1 [Example 228, (2E)-3-[2-{[3-chloro-5-(trifluoromethyl)pyridin-2-yl]oxy}-4-(2-methoxyethoxy)phenyl]-N-{[(2-phenylethyl)amino]sulfonyl}acrylamide]	85 to 85.5
COCCOc1ccc(/C=C/C(=O)NS(=O)(=O)c2ccc(Cl)cc2)c(Oc2ncc(C(F)(F)F)cc2Cl)c1 [Example 229, (2E)-N-[(4-chlorophenyl)sulfonyl]-3-[2-{[3-chloro-5-(trifluoromethyl)pyridin-2-yl]oxy}-4-(2-methoxyethoxy)phenyl]acrylamide]	182 to 182.5
COCCOc1ccc(/C=C(\C)C(=O)NS(=O)(=O)c2ccc(Cl)cc2)c(Oc2ncc(C(F)(F)F)cc2Cl)c1 [Example 230, (2E)-N-[(4-chlorophenyl)sulfonyl]-3-[2-{[3-chloro-5-(trifluoromethyl)pyridin-2-yl]oxy}-4-(2-methoxyethoxy)phenyl]-2-methylacrylamide]	145.7 to 145.8
C/C(=C\c1ccc(OC(C)C)cc1Oc1ncc(C(F)(F)F)cc1Cl)C(=O)NS(=O)(=O)NCC1CCCO1 (centres unmarked) [Example 231, (2E)-3-(2-{[3-chloro-5-(trifluoromethyl)pyridin-2-yl]oxy}-4-isopropoxyphenyl)-2-methyl-N-{[(tetrahydrofuran-2-ylmethyl)amino]sulfonyl}acrylamide]	125.3 to 126.5
COCCOc1ccc(/C=C/C(=O)NS(=O)(=O)c2cccc(Cl)c2)c(Oc2ncc(C(F)(F)F)cc2Cl)c1 [Example 232, (2E)-N-[(3-chlorophenyl)sulfonyl]-3-[2-{[3-chloro-5-(trifluoromethyl)pyridin-2-yl]oxy}-4-(2-methoxyethoxy)phenyl]acrylamide]	157 to 158
COCCOc1ccc(/C=C/C(=O)NS(=O)(=O)c2ccc(C(F)(F)F)cc2)c(Oc2ncc(C(F)(F)F)cc2Cl)c1 [Example 234, (2E)-3-[2-{[3-chloro-5-(trifluoromethyl)pyridin-2-yl]oxy}-4-(2-methoxyethoxy)phenyl]-N-{[4-(trifluoromethyl)phenyl]sulfonyl}acrylamide]	186.3 to 186.5
COCCOc1ccc(/C=C/C(=O)NS(=O)(=O)c2ccccc2Cl)c(Oc2ncc(C(F)(F)F)cc2Cl)c1 [Example 235, (2E)-N-[(2-chlorophenyl)sulfonyl]-3-[2-{[3-chloro-5-(trifluoromethyl)pyridin-2-yl]oxy}-4-(2-methoxyethoxy)phenyl]acrylamide]	168 to 169
COCCOc1ccc(/C=C/C(=O)NS(=O)(=O)c2ccc(C)cc2)c(Oc2ncc(C(F)(F)F)cc2Cl)c1 [Example 236, (2E)-3-[2-{[3-chloro-5-(trifluoromethyl)pyridin-2-yl]oxy}-4-(2-methoxyethoxy)phenyl]-N-[(4-methylphenyl)sulfonyl]acrylamide]	102.5 to 106.5
COCCOc1ccc(/C=C/C(=O)NS(=O)(=O)c2ccc(F)cc2)c(Oc2ncc(C(F)(F)F)cc2Cl)c1 [Example 237, (2E)-3-[2-{[3-chloro-5-(trifluoromethyl)pyridin-2-yl]oxy}-4-(2-methoxyethoxy)phenyl]-N-[(4-fluorophenyl)sulfonyl]acrylamide]	183 to 184
COCCOc1ccc(/C=C/C(=O)NS(=O)(=O)c2ccccn2)c(Oc2ncc(C(F)(F)F)cc2Cl)c1 [Example 239, (2E)-3-[2-{[3-chloro-5-(trifluoromethyl)pyridin-2-yl]oxy}-4-(2-methoxyethoxy)phenyl]-N-(pyridin-2-ylsulfonyl)acrylamide]	164 to 165
COCCOc1ccc(/C=C/C(=O)NS(=O)(=O)c2cccnc2)c(Oc2ncc(C(F)(F)F)cc2Cl)c1 [Example 240, (2E)-3-[2-{[3-chloro-5-(trifluoromethyl)pyridin-2-yl]oxy}-4-(2-methoxyethoxy)phenyl]-N-(pyridin-3-ylsulfonyl)acrylamide]	165 to 167
COCCOc1ccc(/C=C/C(=O)NS(=O)(=O)c2cccc(C)c2)c(Oc2ncc(C(F)(F)F)cc2Cl)c1 [Example 241, (2E)-3-[2-{[3-chloro-5-(trifluoromethyl)pyridin-2-yl]oxy}-4-(2-methoxyethoxy)phenyl]-N-[(3-methylphenyl)sulfonyl]acrylamide]	147 to 147.5
COCCOc1ccc(/C=C/C(=O)NS(=O)(=O)C(F)(F)F)c(Oc2ncc(C(F)(F)F)cc2Cl)c1 [Example 243, (2E)-3-[2-{[3-chloro-5-(trifluoromethyl)pyridin-2-yl]oxy}-4-(2-methoxyethoxy)phenyl]N-[(trifluoromethyl)sulfonyl]acrylamide]	125.5 to 128
COCCOc1ccc(/C=C(\C)C(=O)NS(=O)(=O)CC(F)(F)F)c(Oc2ncc(C(F)(F)F)cc2Cl)c1 [Example 244, (2E)-3-[2-{[3-chloro-5-(trifluoromethyl)pyridin-2-yl]oxy}-4-(2-methoxyethoxy)phenyl]-2-methyl-N-[(2,2,2-trifluoroethyl)sulfonyl]acrylamide]	159 to 159.5
COCCOc1ccc(/C=C(\C)C(=O)NS(=O)(=O)C(F)(F)F)c(Oc2ncc(C(F)(F)F)cc2Cl)c1 [Example 245, (2E)-3-[2-{[3-chloro-5-(trifluoromethyl)pyridin-2-yl]oxy}-4-(2-methoxyethoxy)phenyl]-2-methyl-N-[(trifluoromethyl)sulfonyl]acrylamide]	146 to 147
